Measurements: ChEMBL document CHEMBL4043290, “Structure-based Design of Pyridone-Aminal eFT508 Targeting Dysregulated Translation by Selective Mitogen-activated Protein Kinase Interacting Kinases 1 and 2 (MNK1/2) Inhibition” (J Med Chem, 2018)
Active and inactive are the calls of the source. No cut-off for these calls is given here.

Legend:
[1] = molecular target: T1, MAP kinase-interacting serine/threonine-protein kinase 1/2 (Homo sapiens, UniProt Q9HBH9+Q9BUB5); test: Inhibition of MNK1/2 in human TMD8 cells assessed as decrease in TNF-alpha levels after 48 hrs by ELISA; assay type: cell-based
physchem = conditions: octanol/water
[2] = molecular target: Eukaryotic translation initiation factor 4E-binding protein 1 (Homo sapiens) (UniProt Q13541); test: Effect on 4E-BP1 phosphorylation at Thr37/46 in human TMD8 cells at 0.01 to 10 uM after 2 hrs by immunoblot method; assay type: cell-based
Sequence of Eukaryotic translation initiation factor 4E-binding protein 1 (Homo sapiens) (Q13541 whole entry): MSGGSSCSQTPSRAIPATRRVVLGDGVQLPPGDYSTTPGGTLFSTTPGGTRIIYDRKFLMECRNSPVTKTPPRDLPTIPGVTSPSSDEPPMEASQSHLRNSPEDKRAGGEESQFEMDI

[3] = Antiproliferative activity against human multiple myeloma cells after 72 hrs by CellTiter-Glo assay; assay type: functional, cell-based; conditions: Multiple myeloma cell
TMD8 [4] = test: Effect on 4E-BP1 expression in human TMD8 cells after 2 hrs by immunoblot method; assay type: functional, cell-based
Mus musculus [5] = test: In vivo inhibition of MNK1/2 in human TMD8 cells xenografted in NOD SCID mouse assessed as reduction in eIF4E phosphorylation at Ser209 at 1 mg/kg, po qd administered for 14 days measured over 8 hrs post last dose by Western blot method relative to control; assay type: functional
[6] = molecular target: Dual specificity protein kinase CLK4 (Homo sapiens, UniProt Q9HAZ1); test: Inhibition of CLK4 (unknown origin)
Sequence of Dual specificity protein kinase CLK4 (Q9HAZ1 whole entry): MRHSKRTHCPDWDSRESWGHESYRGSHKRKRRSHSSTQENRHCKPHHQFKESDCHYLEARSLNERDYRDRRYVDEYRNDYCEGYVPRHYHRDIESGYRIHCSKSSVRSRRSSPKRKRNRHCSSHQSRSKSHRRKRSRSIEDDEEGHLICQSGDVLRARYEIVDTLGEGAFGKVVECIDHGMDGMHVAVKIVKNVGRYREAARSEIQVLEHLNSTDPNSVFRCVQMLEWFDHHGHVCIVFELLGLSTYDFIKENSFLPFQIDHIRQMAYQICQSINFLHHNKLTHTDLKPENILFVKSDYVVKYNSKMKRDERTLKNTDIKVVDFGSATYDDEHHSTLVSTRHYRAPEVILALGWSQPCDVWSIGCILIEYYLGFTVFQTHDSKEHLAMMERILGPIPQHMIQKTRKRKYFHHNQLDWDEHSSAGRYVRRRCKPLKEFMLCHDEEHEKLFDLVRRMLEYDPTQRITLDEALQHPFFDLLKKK

[7] = molecular target: T1, MAP kinase-interacting serine/threonine-protein kinase 1/2; test: Inhibition of MNK1/2 in human TMD8 cells assessed as decrease in IL-6 levels after 48 hrs by ELISA; assay type: cell-based
Mus musculus [8] = test: In vivo inhibition of MNK1/2 in human TMD8 cells xenografted in NOD SCID mouse assessed as reduction in eIF4E phosphorylation at Ser209 administered as po qd for 14 days measured over 24 hrs post last dose by Western blot method; assay type: functional, organism-based
in vitro = conditions: human, Caco-2
[9] = Antitumor activity against human HBL1 cells xenografted in NOD SCID mouse assessed as tumor growth inhibition at 1 mg/kg, po qd administered for 12 days relative to control; assay type: functional; conditions: 288 h, read-out: TGI
[10] = Protein binding in human plasma; assay type: ADME, cell-free; conditions: read-out: PPB
[11] = molecular target: T1, MAP kinase-interacting serine/threonine-protein kinase 1/2; test: Inhibition of MNK1/2 in human TMD8 cells assessed as decrease in IL-8 levels after 48 hrs by ELISA; assay type: cell-based
[12] = Antiproliferative activity against human B-ALL cells after 72 hrs by CellTiter-Glo assay; assay type: functional, cell-based
[13] = Antiproliferative activity against human MCL cells after 72 hrs by CellTiter-Glo assay; assay type: functional, cell-based
[14] = Antiproliferative activity against human B-PLL cells after 72 hrs by CellTiter-Glo assay; assay type: functional, cell-based
[15] = Therapeutic index, ratio of tumor growth inhibition of human HBL1 cells xenografted in NOD SCID mouse to body weight loss in NOD SCID mouse xenografted with human HBL1 cells
TMD8 [16] = test: Antitumor activity against human TMD8 cells xenografted in NOD SCID mouse assessed as tumor growth inhibition at 10 mg/kg, po qd administered for 14 days relative to control; assay type: functional; conditions: 336 h, read-out: TGI
[17] = Metabolic stability in rat liver microsomes assessed as parent compound remaining at 1 uM after 30 mins by LC-ESI-TOF/MS method; assay type: ADME, microsome; conditions: read-out: Stability
[18] = Protein binding in monkey plasma; assay type: ADME, cell-free, Macaca mulatta; conditions: rhesus monkey, read-out: PPB
Mus musculus [19] = test: Toxicity in NOD SCID mouse xenografted with human TMD8 cells assessed as body weight loss at 1 to 10 mg/kg, po qd administered for 14 days measured twice a week during compound dosing; assay type: organism-based; conditions: in vivo, 336 h
[20] = Protein binding in mouse plasma; assay type: ADME, cell-free; conditions: read-out: PPB
Homo sapiens = species on record: Homo sapiens; test: Effect on MAPK phosphorylation at Thr202/Tyr204 in human TMD8 cells at 0.01 to 10 uM after 2 hrs by immunoblot method; assay type: cell-based
[21] = Therapeutic index, ratio of tumor growth inhibition of human TMD8 cells xenografted in NOD SCID mouse to body weight loss in NOD SCID mouse xenografted with human TMD8 cells
[22] = Protein binding in rat plasma; assay type: ADME, cell-free; conditions: read-out: PPB
[23] = molecular target: T1, MAP kinase-interacting serine/threonine-protein kinase 1/2; test: Inhibition of MNK1/2 in human TMD8 cells assessed as decrease in TNF-alpha mRNA half life at 10 uM incubated for 24 hrs by TaqMan assay relative to control; assay type: cell-based
Mus musculus [24] = test: Toxicity in NCr nu/nu mouse xenografted with human MDA-MB-231 cells assessed as body weight loss at 1 to 10 mg/kg, po qd administered for 23 days measured twice a week during compound dosing; assay type: organism-based; conditions: in vivo, 552 h
[25] = Antitumor activity against human HBL1 cells xenografted in NOD SCID mouse assessed as tumor growth inhibition at 10 mg/kg, po qd administered for 12 days relative to control; assay type: functional; conditions: 288 h, read-out: TGI
[26] = Antiproliferative activity against human Burkitt lymphoma cells after 72 hrs by CellTiter-Glo assay; assay type: functional, cell-based; conditions: Burkitt lymphoma cell
[27] = molecular target: T1, MAP kinase-interacting serine/threonine-protein kinase 1/2; test: Inhibition of MNK1/2 in human TMD8 cells assessed as decrease in IL-8 mRNA half life at 10 uM incubated for 24 hrs by TaqMan assay relative to control; assay type: cell-based
[28] = Oral bioavailability in Beagle dog at 3 mg/kg by LC-ESI-TOF/MS or LC-ESI-MS/MS method; assay type: ADME, organism-based, Canis lupus familiaris; conditions: in vivo
[29] = molecular target: T1, MAP kinase-interacting serine/threonine-protein kinase 1/2; test: Inhibition of MNK1/2 in human TMD8 cells assessed as decrease in eIF4E phosphorylation at Ser209 after 2 hrs by immunoblot method; assay type: cell-based
[30] = Metabolic stability in mouse liver microsomes assessed as parent compound remaining at 1 uM after 30 mins by LC-ESI-TOF/MS method; assay type: ADME, microsome; conditions: read-out: Stability
TMD8 [31] = test: Antitumor activity against human TMD8 cells xenografted in NOD SCID mouse assessed as tumor growth inhibition at 1 mg/kg, po qd administered for 14 days relative to control; assay type: functional; conditions: 336 h, read-out: TGI
[32] = Protein binding in dog plasma; assay type: ADME, cell-free, Canis lupus familiaris; conditions: read-out: PPB
[33] = Oral bioavailability in Sprague-Dawley rat at 10 mg/kg by LC-ESI-TOF/MS or LC-ESI-MS/MS method; assay type: ADME, organism-based; conditions: in vivo
[34] = Antiproliferative activity against human T-ALL cells after 72 hrs by CellTiter-Glo assay; assay type: functional, cell-based
[35] = Therapeutic index, ratio of tumor growth inhibition of human MDA-MB-231 cells xenografted in NCr nu/nu mouse to body weight loss in NCr nu/nu mouse xenografted with human MDA-MB-231 cells
[36] = Oral bioavailability in Balb/c mouse at 10 mg/kg by LC-ESI-TOF/MS or LC-ESI-MS/MS method; assay type: ADME, organism-based; conditions: in vivo
MDA-MB-231 [37] = test: Growth inhibition of human MDA-MB-231 cells after 72 hrs by CellTiter-Glo assay; assay type: functional, cell-based
[38] = Antiproliferative activity against human CML cells after 72 hrs by CellTiter-Glo assay; assay type: functional, cell-based
MDA-MB-231 [39] = test: Antitumor activity against human MDA-MB-231 cells xenografted in NCr nu/nu mouse assessed as tumor growth inhibition at 1 to 10 mg/kg, po qd administered for 23 days relative to control; assay type: functional
Mus musculus [40] = test: Toxicity in NOD SCID mouse xenografted with human HBL1 cells assessed as body weight loss at 1 to 10 mg/kg, po qd administered for 12 days measured twice a week during compound dosing; assay type: organism-based; conditions: in vivo, 288 h
[41] = Antiproliferative activity against human DLBCL cells after 72 hrs by CellTiter-Glo assay; assay type: functional, cell-based
[42] = molecular target: Serine/threonine-protein kinase 17A (Homo sapiens, UniProt Q9UEE5); test: Inhibition of DRAK1 (unknown origin)
Sequence of Serine/threonine-protein kinase 17A (Q9UEE5 whole entry): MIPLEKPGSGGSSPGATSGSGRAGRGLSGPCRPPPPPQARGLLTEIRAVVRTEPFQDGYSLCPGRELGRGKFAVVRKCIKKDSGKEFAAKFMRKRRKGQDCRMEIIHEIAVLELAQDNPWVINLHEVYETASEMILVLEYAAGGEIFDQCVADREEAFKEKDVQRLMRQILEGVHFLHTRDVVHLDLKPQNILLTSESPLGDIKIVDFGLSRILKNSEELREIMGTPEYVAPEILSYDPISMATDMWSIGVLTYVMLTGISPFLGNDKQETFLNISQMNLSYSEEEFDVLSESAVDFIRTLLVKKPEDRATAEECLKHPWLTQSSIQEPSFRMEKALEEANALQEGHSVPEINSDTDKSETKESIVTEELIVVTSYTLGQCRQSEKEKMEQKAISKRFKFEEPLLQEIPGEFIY

[43] = Oral bioavailability in cynomolgus monkey at 3 mg/kg by LC-ESI-TOF/MS or LC-ESI-MS/MS method; assay type: ADME, organism-based, Macaca fascicularis; conditions: in vivo
[44] = Antiproliferative activity against human AML cells after 72 hrs by CellTiter-Glo assay; assay type: functional, cell-based
[45] = molecular target: T1, MAP kinase-interacting serine/threonine-protein kinase 1/2; test: Inhibition of MNK1/2 in human TMD8 cells assessed as decrease in IL-6 mRNA half life at 10 uM incubated for 24 hrs by TaqMan assay relative to control; assay type: cell-based
[46] = Antiproliferative activity against human ALCL cells after 72 hrs by CellTiter-Glo assay; assay type: functional, cell-based
[47] = Metabolic stability in human liver microsomes assessed as parent compound remaining at 1 uM after 30 mins by LC-ESI-TOF/MS method; assay type: ADME, microsome; conditions: read-out: Stability

inhibition [1]: Dose-dependent effect | logP (physchem): 2.7 | Activity [2]: inactive | IC50 [6]: 0.787 µM | inhibition [7]: Dose-dependent effect | IC90 (Mus musculus [8]): 0.376 µM | IC50 (Mus musculus [8]; Mus musculus, TMD8): 0.0158 µM | Papp A→B at 2 h, 5 µM (in vitro): 7.1 ×10⁻⁶ cm/s | fraction unbound [10]: 0.5 | inhibition [11]: Dose-dependent effect | remaining at 0.5 h, 1 µM [17]: 93% | fraction unbound [18]: 0.5 | fraction unbound [20]: 0.5 | fraction unbound [22]: 0.5 | fold change (FC) [23]: 1.5 to 2 | fold change (FC) [27]: 1.5 to 2 | bioavailability [28]: > 100% | inhibition [29]: Dose-dependent effect | remaining at 0.5 h, 1 µM [30]: 90% | fraction unbound [32]: 0.5 | bioavailability [33]: 85% | bioavailability [36]: 79% | IC50 [42]: 0.131 µM | bioavailability [43]: 24% | fold change (FC) [45]: 1.5 to 2 | remaining at 0.5 h, 1 µM [47]: 87%
SMILES: Cc1cc(Nc2cc(N)ncn2)c(=O)n2c1C(=O)NC21CCCCC1 [TOMIVOSERTIB]
IC50 [3]: < 10 µM | Activity (TMD8 [4]): inactive | inhibition in vivo at 1 mg/kg (Mus musculus [5]): 80% | inhibition in vivo at 1 mg/kg [9]: 66% | IC50 [12]: > 30 µM | IC50 [13]: > 30 µM | IC50 [14]: > 30 µM | TI [15]: >=10 | inhibition in vivo at 10 mg/kg (TMD8 [16]): 75% | Activity (Mus musculus [19]): Non-Toxic | Activity (Homo sapiens): inactive | TI [21]: >=10 | Activity (Mus musculus [24]): Non-Toxic | inhibition in vivo at 10 mg/kg [25]: 96% | IC50 [26]: > 30 µM | inhibition in vivo at 1 mg/kg (TMD8 [31]): 71% | IC50 [34]: > 30 µM | TI [35]: >=10 | growth inhibition (GI) (MDA-MB-231 [37]): inactive | IC50 [38]: > 30 µM | TGI (MDA-MB-231 [39]): >100% | Activity (Mus musculus [40]): Non-Toxic | IC50 [41]: < 10 µM | IC50 [44]: > 30 µM | IC50 [46]: > 30 µM
